According to patent publication US11001564B2, “Substituted chromane-8-carboxamide compounds and analogues thereof, and methods using same” (priority 2016, dated 2021):
Where a name gives a salt, the structure may show the parent alone.

Test system: HBV rcDNA in HepDE19 cells
Assay: HepDE19 assay with bDNA quantitation of HBV rcDNA
Assay type: cell-based, hepatitis B virus (HBV)
Conditions: Hepatitis B virus, HepDE19, 168 h, HepDE19 cells, 7 day incubation, rcDNA by Quantigene 2.0 bDNA assay; read-out: DE-19 bDNA EC50
Experimental: HepDE19 Assay with bDNA Quantitation of HBV rcDNA:
HepDE19 cell culture system is a HepG2 (human hepatocarcinoma) derived cell line that supports HBV DNA replication and cccDNA formation in a tetracycline (Tet)-regulated manner and produces HBV rcDNA and a detectable reporter molecule dependent on the production and maintenance of cccDNA (Guo, et al., 2007, J. Virol. 81:12472-12484).
HepDE19 (50,000 cells/well) were plated in 96 well collagen-coated tissue-culture treated microtiter plates in DMEM/F12 medium supplemented with 10% fetal bovine serum, 1% penicillin-streptomycin and 1 μg/mL tetracycline and incubated in a humidified incubator at 37° C. and 5% CO2 overnight. Next day, the cells were switched to fresh medium without tetracycline and incubated for 4 hours at 37° C. and 5% CO2. The cells were treated with fresh Tet-free medium with compounds at concentrations starting at 25 μM and a serial, ½ log, 8-point, titration series in duplicate. The final DMSO concentration in the assay was 0.5%. The plates were incubated for 7 days in a humidified incubator at 37° C. and 5% CO2. Following a 7 day-incubation, the level of rcDNA present in the inhibitor-treated wells was measured using a Quantigene 2.0 bDNA assay kit (Affymetrix, Santa Clara, Calif.) with HBV specific custom probe set and manufacturers instructions. Concurrently, the effect of compounds on cell viability was assessed using replicate plates, plated at a density of 5,000 cells/well and incubated for 4 days, to determine the ATP content as a measure of cell viability using the cell-titer glo reagent (CTG; Promega Corporation, Madison, Wis.) as per manufacturer's instructions. The plates were read using a Victor luminescence plate reader (PerkinElmer Model 1420 Multilabel counter) and the relative luminescence units (RLU) data generated from each well was calculated as % inhibition of the untreated control wells and analyzed using XL-Fit module in Microsoft Excel to determine EC50 and EC90 (bDNA) and CC50 (CTG) values using a 4-parameter curve fitting algorithm.
Representative compounds of the invention were tested for their ability to inhibit formation of relaxed circular DNA (rcDNA) in a HepDE19 assay, as described elsewhere herein.

| SMILES | EC50 |
| --- | --- |
| COc1cnc(N[C@H]2CCOc3c(C(=O)Nc4ccc(F)c(F)c4)cccc32)nc1 [Compound 55, (S)—N-(3,4-Difluorophenyl)-4-((5-methoxypyrimidin-2-yl)amino)chromane-8-carboxamide] | 2 µM |
| O=C(Nc1ccc(F)c(F)c1)c1c(F)ccc2c1OCC[C@@H]2Nc1ncccn1 [Compound 56, (S)—N-(3,4-Difluorophenyl)-7-fluoro-4-(pyrimidin-2-ylamino)chromane-8-carboxamide] | 2.5 µM |
| Cc1ccnc(N[C@H]2CCOc3c(C(=O)Nc4ccc(F)c(F)c4)cccc32)n1 [Compound 57, (S)—N-(3,4-Difluorophenyl)-4-((4-methylpyrimidin-2-yl)amino)chromane-8-carboxamide] | 3.4 µM |
| Cc1cnc(N[C@H]2CCOc3c(C(=O)Nc4ccc(F)c(F)c4)cccc32)nc1 [Compound 58, (S)—N-(3,4-Difluorophenyl)-4-((5-methylpyrimidin-2-yl)amino)chromane-8-carboxamide] | 9.7 µM |
| O=C(N[C@H]1CCOc2c1ccc(F)c2C(=O)Nc1ccc(F)c(F)c1)OCc1ccccn1 [Compound 59, (S)-Pyridin-2-ylmethyl (8-((3,4-difluorophenyl)carbamoyl)-7-fluorochroman-4-yl)carbamate] | 5.3 µM |
| O=C(Nc1ccc(F)c(F)c1)c1ccc(F)c2c1OCCC2=O [Compound 60, N-(3,4-difluorophenyl)-5-fluoro-4-oxochromane-8-carboxamide] | 3.9 µM |
| O=C(Nc1ccc(F)c(F)c1)c1cccc2c1OCCC2c1ccccc1 (centres unmarked) [Compound 62, N-(3,4-difluorophenyl)-4-phenylchromane-8-carboxamide] | 4.9 µM |
| O=C(Nc1ccc(F)c(F)c1)c1cccc2c1OCCC2c1cccnc1 (centres unmarked) [Compound 63, N-(3,4-difluorophenyl)-4-(pyridin-3-yl)chromane-8-carboxamide] | 14 µM |
| O=C1CCOc2c1ccc(F)c2C(=O)Nc1ccc(F)c(F)c1 [Compound 64, N-(3,4-difluorophenyl)-7-fluoro-4-oxochromane-8-carboxamide] | 3.8 µM |
| O=C1CCOc2c1ccc(F)c2C(=O)Nc1ccc(F)c(Cl)c1 [Compound 65, N-(3-chloro-4-fluorophenyl)-7-fluoro-4-oxochromane-8-carboxamide] | 4.1 µM |
| O=C(N[C@H]1CCOc2c(C(=O)Nc3ccc(F)c(F)c3)cccc21)OCc1ccncn1 [Compound 66, Pyrimidin-4-ylmethyl (S)-(8-((3,4-difluorophenyl)carbamoyl)chroman-4-yl)carbamate] | 3.5 µM |
| O=C(Nc1ccc(F)c(F)c1)c1cccc2c1OCC[C@@H]2Nc1ccncn1 [Compound 67, (S)—N-(3,4-Difluorophenyl)-4-(pyrimidin-4-ylamino)chromane-8-carboxamide] | 3.6 µM |
| O=C(Nc1ccc(F)c(F)c1)c1cccc2c1OCCC2c1ccccn1 (centres unmarked) [Compound 68, N-(3,4-difluorophenyl)-4-(pyridin-2-yl)chromane-8-carboxamide] | 3.4 µM |
| O=C(Nc1ccc(F)c(F)c1)c1cccc2c1OCCC2c1ncccn1 (centres unmarked) [Compound 71, N-(3,4-difluorophenyl)-4-(pyrimidin-2-yl)chromane-8-carboxamide] | 12 µM |
| Cn1ccc(COC(=O)N[C@H]2CCOc3c(C(=O)Nc4ccc(F)c(F)c4)cccc32)n1 [Compound 72, (1-Methyl-1H-pyrazol-3-yl)methyl (S)-(8-((3,4-difluorophenyl)carbamoyl)chroman-4-yl)carbamate] | 2 µM |
| O=C(N[C@H]1CCOc2c1ccc(F)c2C(=O)Nc1ccc(F)c(Cl)c1)OCc1ccccn1 [Compound 76, (S)-Pyridin-2-ylmethyl (8-((3-chloro-4-fluorophenyl)carbamoyl)-7-fluorochroman-4-yl)carbamate] | 1.9 µM |
| O=C1CCOc2c1ccc(Cl)c2C(=O)Nc1ccc(F)c(F)c1 [Compound 77, 7-chloro-N-(3,4-difluorophenyl)-4-oxochromane-8-carboxamide] | 23 µM |
| O=C(Nc1ccc(F)c(F)c1)c1ccc(Cl)c2c1OCCC2=O [Compound 78, 5-chloro-N-(3,4-difluorophenyl)-4-oxochromane-8-carboxamide] | 7.3 µM |
| O=C(Nc1ccc(F)c(Cl)c1)c1ccc(F)c2c1OCCC2=O [Compound 79, N-(3-chloro-4-fluorophenyl)-5-fluoro-4-oxochromane-8-carboxamide] | 5.3 µM |
| O=C(N[C@H]1CCOc2c(C(=O)Nc3ccc(F)c(F)c3)cccc21)OCc1cnccn1 [Compound 81, Pyrazin-2-ylmethyl (S)-(8-((3,4-difluorophenyl)carbamoyl)chroman-4-yl)carbamate] | 2.4 µM |
| O=C(Nc1ccc(F)c(F)c1)c1ccc(F)c2c1OCC[C@@H]2Nc1ncccn1 [Compound 89, (S)—N-(3,4-Difluorophenyl)-5-fluoro-4-(pyrimidin-2-ylamino)chromane-8-carboxamide] | 1.1 µM |
| O=C(N[C@H]1CCOc2c1ccc(Cl)c2C(=O)Nc1ccc(F)c(F)c1)OCc1ccccn1 [Compound 90, Pyridin-2-ylmethyl (S)-(7-chloro-8-((3,4-difluorophenyl)carbamoyl)chroman-4-yl)carbamate] | 8.4 µM |
| O=C(N[C@H]1CCOc2c(C(=O)Nc3ccc(F)c(F)c3)ccc(F)c21)OCc1ccccn1 [Compound 93, Pyridin-2-ylmethyl (S)-(8-((3,4-difluorophenyl)carbamoyl)-5-fluorochroman-4-yl)carbamate] | 0.85 µM |
| CN1CCC(COC(=O)N[C@H]2CCOc3c(C(=O)Nc4ccc(F)c(F)c4)cccc32)CC1 [Compound 95, (1-methylpiperidin-4-yl)methyl (S)-(8-((3,4-difluorophenyl)carbamoyl)chroman-4-yl)carbamate] | 24 µM |
| C[C@@H](OC1CCOc2c(C(=O)Nc3ccc(F)c(F)c3)cccc21)c1ccncc1 (stereo partly drawn) [Compound 96, N-(3,4-difluorophenyl)-4-((R)-1-(pyridin-4-yl)ethoxy)chromane-8-carboxamide] | 15 µM |

Same assay, conditions: Hepatitis B virus, HepDE19, 168 h, read-out: DE-19 bDNA EC50, HepDE19 cells, 7 day incubation, rcDNA by Quantigene 2.0 bDNA assay

| SMILES | EC50 |
| --- | --- |
| C[C@H](OC(=O)N[C@H]1CCOc2c(C(=O)Nc3ccc(F)c(F)c3)cccc21)c1ccccn1 [Compound 61, (S)-1-(Pyridin-2-yl)ethyl ((S)-8-((3,4-difluorophenyl)carbamoyl)chroman-4-yl)carbamate hydrochloride] | 4 µM |
| COC(=O)N[C@H]1CCOc2c1ccc(F)c2C(=O)Nc1ccc(F)c(Cl)c1 [Compound 74, (S)-Methyl (8-((3-chloro-4-fluorophenyl)carbamoyl)-7-fluorochroman-4-yl)carbamate] | 1.9 µM |
| CNC(=O)N[C@H]1CCOc2c1ccc(F)c2C(=O)Nc1ccc(F)c(Cl)c1 [Compound 75, (S)—N-(3-Chloro-4-fluorophenyl)-7-fluoro-4-(3-methylureido)chromane-8-carboxamide] | 3.2 µM |
| COc1ccnc(COC(=O)N[C@H]2CCOc3c(C(=O)Nc4ccc(F)c(F)c4)cccc32)c1 [Compound 80, (4-Methoxypyridin-2-yl)methyl (S)-(8-((3,4-difluorophenyl)carbamoyl)chroman-4-yl)carbamate hydrochloride] | 2.7 µM |
| O=C(N[C@H]1CCOc2c(C(=O)Nc3ccc(F)c(F)c3)cccc21)OCc1cc(Cl)ccn1 [Compound 82, (4-Chloropyridin-2-yl)methyl (S)-(8-((3,4-difluorophenyl)carbamoyl)chroman-4-yl)carbamate hydrochloride] | 3.2 µM |
| COC(=O)N[C@H]1CCOc2c1ccc(Cl)c2C(=O)Nc1ccc(F)c(F)c1 [Compound 83, Methyl (S)-(7-chloro-8-((3,4-difluorophenyl)carbamoyl)chroman-4-yl)carbamate] | 5.4 µM |
| CNC(=O)N[C@H]1CCOc2c1ccc(Cl)c2C(=O)Nc1ccc(F)c(F)c1 [Compound 84, (S)-7-Chloro-N-(3,4-difluorophenyl)-4-(3-methylureido)chromane-8-carboxamide] | 11 µM |
| O=C(N[C@H]1CCOc2c(C(=O)Nc3ccc(F)c(F)c3)cccc21)OCc1ccc(Cl)cn1 [Compound 88, (5-Chloropyridin-2-yl)methyl (S)-(8-((3,4-difluorophenyl)carbamoyl)chroman-4-yl)carbamate hydrochloride] | 13 µM |
| COC(=O)N[C@H]1CCOc2c(C(=O)Nc3ccc(F)c(Cl)c3)ccc(F)c21 [Compound 91, Methyl (S)-(8-((3-chloro-4-fluorophenyl)carbamoyl)-5-fluorochroman-4-yl)carbamate] | 0.2 µM |
| COC(=O)N[C@@H]1CCOc2c(C(=O)Nc3ccc(F)c(Cl)c3)ccc(F)c21 [Compound 92, (R)-Methyl (8-((3-chloro-4-fluorophenyl)carbamoyl)-5-fluorochroman-4-yl) carbamate] | 4.6 µM |
